The source of these data is ChEMBL document CHEMBL3046798 (J Agric Food Chem, 2010).

≈ marks a conversion by molar mass, not a printed value.

Data set [1] can be described thus: Drug level in Solanum lycopersicum (tomato) green seeds measured 120 days post dose following field application at 1 kg of active ingredient/hectare.
Data set [2] deals with Meloidogyne incognita. Description: Nematicidal activity against root-knot nematode Meloidogyne incognita J2 (root-knot nematode) infested tomato plants plots assessed as reduction in nematode population measured 55 days post dose following field application at 1 to 2 kg of active ingredient/hectare. The class given is functional. The arrangement: scale not given: the % may be the effect or the level left.

Data set [3] in a line: Drug level in Solanum lycopersicum (tomato) green seeds measured 90 days post dose following field application at 2 kg of active ingredient/hectare.
Data set [4] concerns Rotylenchulus reniformis. Description: Nematicidal activity against Rotylenchulus reniformis (reniform nematode) infested chickpea plants plots assessed as reduction in nematode population measured 110 days post dose following field application at 1 to 2 kg of active ingredient/hectare. Details: scale not given: the % may be the effect or the level left. The class given is functional.

Data set [5] can be described thus: Drug level in Cicer arietinum (chickpea) green seeds measured 100 days post dose following field application at 2 kg of active ingredient/hectare.
Data set [6] can be described thus: Drug level in Solanum lycopersicum (tomato) green seeds measured 90 days post dose following field application at 1 kg of active ingredient/hectare.
Data set [7] relates to Rotylenchulus reniformis. Description: Nematicidal activity against Rotylenchulus reniformis (reniform nematode) infested tomato plants plots assessed as reduction in nematode population measured 110 days post dose following field application at 1 to 2 kg of active ingredient/hectare. The class given is functional. Details: scale not given: the % may be the effect or the level left.

Data set [8] relates to Root. Description: Drug absorption in Solanum lycopersicum (tomato) roots assessed as mean drug level measured post dose following field application at 1 and 2 kg of active ingredient/hectare.
Data set [9] is described as follows: physchem.
Data set [10] is described as follows: Cmax in Cicer arietinum (chickpea) shoots measured 15 days post dose following field application at 1 and 2 kg of active ingredient/hectare. The format is ADME, Shoot. The conditions noted are these: other: field application.
Data set [11] in a line: Cmax in Solanum lycopersicum (tomato) shoots measured 30 days post dose following field application at 1 and 2 kg of active ingredient/hectare. The class given is ADME, Shoot. The conditions noted are these: other: field application.
The nature of data set [12]: Drug level in Cicer arietinum (chickpea) green seeds measured 90 days post dose following field application at 1 kg of active ingredient/hectare.
Data set [13] can be described thus: Drug level in Solanum lycopersicum (tomato) green seeds measured 100 days post dose following field application at 2 kg of active ingredient/hectare.
For data set [14], the system named is Rotylenchulus reniformis. Description: Nematicidal activity against Rotylenchulus reniformis (reniform nematode) infested in tomato plants plots assessed as reduction in nematode population measured 55 days post dose following field application at 1 to 2 kg of active ingredient/hectare. The arrangement: scale not given: the % may be the effect or the level left. The class given is functional.

Data set [15] deals with Root. Description: Drug translocation in Solanum lycopersicum (tomato) roots assessed as mean drug level measured post dose following field application at 1 and 2 kg of active ingredient/hectare.
Data set [16] concerns Meloidogyne incognita. In words: Nematicidal activity against root-knot nematode Meloidogyne incognita J2 (root-knot nematode) infested tomato plants plots assessed as reduction in nematode population measured 110 days post dose following field application at 1 to 2 kg of active ingredient/hectare. The format is functional. Details: scale not given: the % may be the effect or the level left.

Data set [17] is described as follows: Drug level in Solanum lycopersicum (tomato) green seeds measured 100 days post dose following field application at 1 kg of active ingredient/hectare.
The test system of data set [18] is Meloidogyne incognita. In words: Nematicidal activity against root-knot nematode Meloidogyne incognita J2 (root-knot nematode) infested chickpea plants plots assessed as reduction in nematode population measured 55 days post dose following field application at 1 to 2 kg of active ingredient/hectare. The class given is functional. Details: scale not given: the % may be the effect or the level left.

The nature of data set [19]: Drug absorption in Solanum lycopersicum (tomato) roots measured 30 days post dose following field application at 1 and 2 kg of active ingredient/hectare.
A short description of data set [20]: Drug level in Cicer arietinum (chickpea) green seeds measured 100 days post dose following field application at 1 kg of active ingredient/hectare.
The nature of data set [21]: Drug level in Cicer arietinum (chickpea) green seeds measured 90 days post dose following field application at 2 kg of active ingredient/hectare.
The subject of data set [22] is Meloidogyne incognita. Description: Nematicidal activity against root-knot nematode Meloidogyne incognita J2 (root-knot nematode) infested chickpea plants plots assessed as reduction in nematode population measured 110 days post dose following field application at 1 to 2 kg of active ingredient/hectare. The format is functional. The arrangement: scale not given: the % may be the effect or the level left.

Data set [23] is described as follows: Toxicity in Rattus norvegicus (rat). The conditions noted are these: in vivo.
Data set [24] deals with Rotylenchulus reniformis. In words: Nematicidal activity against Rotylenchulus reniformis (reniform nematode) infested chickpea plants plots assessed as reduction in nematode population measured 55 days post dose following field application at 1 to 2 kg of active ingredient/hectare. The format is functional. Details: scale not given: the % may be the effect or the level left.

Data set [25] is described as follows: Drug level in Solanum lycopersicum (tomato) green seeds measured 120 days post dose following field application at 2 kg of active ingredient/hectare.
Data set [26] can be described thus: Drug level in Cicer arietinum (chickpea) roots measured 15 days post dose following field application at 1 and 2 kg of active ingredient/hectare. The conditions noted are these: other: field application, read-out: Drug uptake. The format is ADME, Root.
Data set [27] is described as follows: Cmax in Cicer arietinum (chickpea) shoots measured 45 days post dose following field application at 1 and 2 kg of active ingredient/hectare. The class given is ADME, Shoot. The conditions noted are these: other: field application.
The nature of data set [28]: in vivo. To be noted: solanum lycopersicum.
A short description of data set [29]: Drug absorption in Cicer arietinum (chickpea) roots measured 45 days post dose following field application at 1 and 2 kg of active ingredient/hectare. The conditions noted are these: Root.
Data set [30] is described as follows: in vivo. To be noted: cicer arietinum, Shoot.
Data set [31] can be described thus: Drug level in Solanum lycopersicum (tomato) roots measured 15 days post dose following field application at 1 and 2 kg of active ingredient/hectare. The format is ADME, Root. The conditions noted are these: other: field application, read-out: Drug uptake.
Data set [32] is described as follows: Drug level in Cicer arietinum (chickpea) green seeds measured 120 days post dose following field application at 2 kg of active ingredient/hectare.
Data set [33] can be described thus: Drug level in Cicer arietinum (chickpea) green seeds measured 120 days post dose following field application at 1 kg of active ingredient/hectare.

`CCOP(=O)(SC(C)CC)SC(C)CC` (stereo unspecified) [CADUSAFOS]: the concentration at 2880 h is 2 ng/g in [1] and 3 ng/g in data set [25]. Besides, the Activity was determined as 57% in data set [2]; 45% in data set [4]; 83% in data set [7]; 39% in [14]; 60% in data set [16]; 66% in data set [18]. For the same compound, the Activity in [22] was 79%; in data set [24], 49%. The concentration at 2160 h came out at 40 ng/g in data set [3] (green seeds), 21 ng/g in data set [6] (green seeds), 9 ng/g in data set [12] (green seeds) and 16 ng/g in [21] (green seeds). The concentration at 2400 h in data set [5] (green seeds) amounted to 5 ng/g; in data set [13] it was 10 ng/g; in data set [17], 6 ng/g; in data set [20] (green seeds), 3 ng/g. In [8], the Drug absorption was 2.18 µg/g. Also, in data set [9] (buffer), the concentration in solution (solubility) was 248 µg/mL (≈ 917 µM). Also, the Cmax in data set [10] was determined as 340 ng/g; in data set [11], 440 ng/g. Moreover, the Drug transport in data set [15] came out at 0.25 µg/g. This compound came in with a concentration at 720 h in data set [19] (roots, other: field application) of 3230 ng/g. In data set [23], this compound returned an LD50 of 37.1 mg/kg.
In turn, `CCOP(=O)(NC(C)C)Oc1ccc(SC)c(C)c1` (stereo unspecified) [PHENAMIPHOS] showed an LD50 in data set [23] of 16 mg/kg.
For the compound `CCCCN(CCCC)SN(C)C(=O)Oc1cccc2c1OC(C)(C)C2` [CARBOSULFAN], the Activity in data set [2] was 52%; in [4] it was 23%; in data set [7], 59%; in data set [14], 23%; in data set [16], 45%; in [18], 33%. In addition, the Activity in data set [22] turned out to be 15%; in data set [24], 37%. Also, the concentration at 360 h in [26] is 530 ng/g. For the same compound, the Drug absorption in [8] came out at 0.36 µg/g. In data set [27], this compound came in with a Cmax of 24800 ng/g. For the same compound, in data set [15], the Drug transport is 9.52 µg/g. Moreover, in data set [23], the median lethal dose (LD50) came out at 209 mg/kg. In [28] (shoots, other: field application), this compound gave a Cmax at 1080 h of 31600 ng/g.
Take `CNC(=O)Oc1cccc2c1OC(C)(C)C2` [CARBOFURAN]: the solubility in [9] (buffer) was 700 µg/mL (≈ 3160 µM). In data set [23], this compound returned an LD50 of 8 mg/kg.
Regarding `CCOP(=S)(OCC)Oc1ncn(-c2ccccc2)n1` [TRIAZOPHOS], the concentration at 1080 h in [29] was determined as 1720 ng/g. The Activity came to 55% in data set [2]; 30% in data set [4]; 31% in data set [7]; 30% in data set [14]; 38% in [16]; 63% in [18]. Moreover, the Activity in data set [22] is reported as 44%; in data set [24] it was 38%. The concentration at 2160 h in data set [3] turned out to be 4 ng/g; in data set [6], 2 ng/g; in data set [12], 11 ng/g; in data set [21], 18 ng/g. Moreover, the concentration at 2400 h in data set [5] was determined as 7 ng/g; in data set [20] it was 4 ng/g. The same compound gave a Cmax at 720 h in [30] of 250 ng/g. The Drug absorption in data set [8] (Root) is 2.77 µg/g. The compound also had a solubility in data set [9] (buffer) of 30 µg/mL (≈ 95.7 µM). In [15] (Root), the Drug transport came out at 0.14 µg/g. The compound further gave a concentration at 720 h in data set [19] (Root) of 7220 ng/g. The LD50 in data set [23] turned out to be 68 mg/kg. The compound further had a Cmax at 1080 h in data set [28] (Shoot) of 630 ng/g.
Take `CCOP(=S)(OCC)SCSCC` [PHORATE]: the concentration at 2880 h in [1] is 3 ng/g; in [32], 6 ng/g; in data set [33], 3 ng/g; in data set [25], 4 ng/g. For the same compound, the Activity in data set [2] is on record as 45%; in data set [4] it was 0.9%; in data set [7], 45%; in data set [14] it was 36%; in data set [16], 17%; in data set [18], 44%. For the same compound, the Activity in data set [22] was 1%; in data set [24] it was 28%. The concentration at 2160 h in data set [3] (green seeds) was determined as 22 ng/g; in [6] (green seeds) it was 14 ng/g; in data set [12] (green seeds), 20 ng/g; in data set [21] (green seeds), 56 ng/g. For the same compound, the concentration at 360 h was 2310 ng/g in data set [26] and 1690 ng/g in data set [31]. Further, the concentration at 2400 h was found to be 19 ng/g in data set [5] (green seeds), 14 ng/g in data set [13], 10 ng/g in data set [17] and 8 ng/g in data set [20] (green seeds). Also, the Drug absorption in data set [8] is 1.45 µg/g. The compound also showed a solubility in data set [9] (water) of 50 µg/mL (≈ 192 µM). Moreover, in data set [27], the Cmax was 680 ng/g. Also, the Drug transport in data set [15] came to 0.41 µg/g. In data set [23], the LD50 worked out at 3.2 mg/kg.

Broadly, the solubility is the concentration that dissolves in the medium under given conditions. Usually Cmax stands for the highest concentration seen after dosing. By LD50 is commonly meant the dose at which mortality reaches 50%.
